Results published in patent US10266520B2, “Bisamidinium-based inhibitors for the treatment of myotonic dystrophy” (The Board of Trustees of the University of Illinois, priority 2014, dated 2019).

Columns and labels:
MBNL1-(CUG)16 complex = assay: EMSA inhibition of the MBNL1-(CUG)16 complex; format: biochemical; settings: for Ki: KI=IC50×KD/[protein]total, read-out: KI, apparent inhibition constant, MBNL1-(CUG)16 complex
Method: FIG. 1A-B. Determination of inhibition constants, KI, by EMSA. (a) Representative gels showing the release of (CUG)16 at different ligand concentrations. Top band is the MBNL1-(CUG)16 complex, the bottom band is the free (CUG)16. (b) IC50 values were obtained by plotting the RNA fraction bound versus ligand concentrations. The apparent inhibition constant (KI) was calculated using the equation: KI=IC50×KD/[protein]total, where KD is the dissociation constant of the MBNL1-RNA complex and [protein] is at least 7-fold greater than the KD. Error bars represent standard deviation of three independent experiments.
An electrophoretic mobility shift assay (EMSA) was employed to determine the in vitro inhibition of MBNL1-rCUG^exp complex by monomer 1a and dimers 2a-b (FIG. 1). This study used (CUG)16, which can form a hairpin structure containing a maximum of 8 U-U mismatches. […] Likely, a 1:1 complex was formed. In this study, a truncated MBNL1 (1-272 amino acids) containing four zinc finger motifs of MBNL1 and a hexahistidine tag (C-terminus) was employed. This MBNL1 construct and the full-length MBNL1 have the similar affinities to rCUG repeats.
To determine the inhibition constant of bivalent ligands 2a and 2b, the MBNL1-(CUG)16 mixture, in which ca. 50% of the RNA is free, was incubated with various concentrations of ligand (FIG. 1a). The dimer concentrations were not raised to higher than 10 μM due to the aggregation on the gel at high concentrations. As the concentration of ligand increased, more RNA was released from the complex with MBNL protein. By fitting the plot of bound RNA fractions versus ligand concentrations with an appropriate equation, the IC50 value was determined (FIG. 1b).
(CUG)16 RNA was labeled with [γ-^32P]-ATP using T4 poly-nucleotide kinase (New England Biolabs). Labeled RNA was purified by phenol extraction and ethanol precipitation. Labeled RNA was heated at 95° C. for 5 min, then placed on ice for 10 min and diluted in protein binding buffer (175 mM NaCl, 5 mM MgCl2, 20 mM Tris-HCl (pH 8), 1.25 mM 2-mercapto-ethanol (BME), 12.5% glycerol, 2 mg/ml bovine serum albumin (BSA), 0.1 mg/ml heparin, 0.05% or 0.1% Triton X). For MBNL1-(CUG)16 binding study, MBNL1 was serially diluted by a factor of 3 in protein binding buffer. To each solution was added labeled RNA, so that the final concentration of RNA was 0.2 nM. The resulting mixtures were incubated at room temperature for 10 min and loaded onto a 6% polyacrylamide gel (80:1) at 4° C. The gel was run for 2 h at 180 V in Tris-Borate 0.5× buffer (pH 8.2-8.3). Gels were dried at 80° C. under high vacuum for 2 h, developed overnight in phosphor exposure cassette, and visualized on a Molecular Dynamics Storm PhosphorImager. The KD (1:1 stoichiometry assumption) was obtained by fitting the normalized fraction RNA bound versus the concentration of protein using the equation: Fraction RNA bound=Bmax×[MBNL1]total^h/(KD^h+MBNL1]total^h) where Bmax is maximum fraction RNA bound, h is a Hill slope. Protein concentration in reaction mixture was larger than 10-fold excess over RNA concentration. Data is illustrated in FIGS. 6 and 7.

MBNL1-(CUG)12 complex = settings: earlier work; read-out: KI, inhibition of MBNL1-(CUG)12 complex; cited from earlier work
(CUG)12 = assay: Isothermal titration calorimetry (ITC) binding to (CUG)12; settings: 25° C., read-out: KD, binding affinity toward (CUG)12
Method: The alkyne and azide moieties were chosen because of their small size, excellent stability, and ultimate bioorthogonality. […] This finding enables the rapid development of a wide range of functional derivatives of ligand 1a using the [3+2] alkyne-azide cycloaddition (‘click reaction’) of 1b and 1c.
The ligand stock solution (10 mM in water). MOPS buffer (100 mM; pH 7.0±0.2), and NaCl (5000 mM) were prepared. The ligand solution (1 mL) contained of 0.5 mM of ligand, 20 mM of MOPS buffer, and 150 mM of NaCl. The RNA solution (2 mL) contained 0.02 mM of RNA, 20 mM of MOPS buffer, and 150 mM of NaCl. The resulting RNA solution was heated in a water bath at 90° C. for 5 min, then allowed to cool to room temperature for 2 h.
ITC measurements were performed at 25° C. on a MicroCal VP-ITC calorimeter (Northampton, Mass.). A typical experiment consisted of titrating 10 μL of a ligand solution (500 μM) from a 250 μL syringe (stirred at 300 rpm) into a sample cell containing 1.42 mL of a RNA solution (10 μM) with total 28 injections. The initial delay prior to the first injection was 60 s. The duration of each injection was 24 s and the delay between injections was 300 s. […] Binding parameters such as the dissociation constant (KD), enthalpy change (ΔH), and entropy change (ΔS) were determined by fitting the experimental binding isotherms with various model. […]

[1] = test system: insulin receptor (IR) pre-mRNA splicing; settings: DM1 model cells; cited from earlier work

SMILES	inhibitory power toward the MBNL1-rCUG^exp interaction relative to compound 1a (fold greater) (MBNL1-(CUG)16 complex)	IC50 (MBNL1-(CUG)16 complex; EMSA)	Ki (MBNL1-(CUG)16 complex; EMSA)	Ki (MBNL1-(CUG)12 complex)	Kd ((CUG)12)	KI of 1a relative to that for 2a and 2b (fold higher) (MBNL1-(CUG)16 complex; EMSA, identical conditions)	mis-splicing of cTNT and IR pre-mRNA (earlier work) [1]
N=C(NCCCCNc1nc(N)nc(N)n1)c1ccc(C(=N)NCCCCNc2nc(N)nc(NCCCn3cc(CNc4nc(N)nc(NCCCCNC(=N)c5ccc(C(=N)NCCCCNc6nc(N)nc(N)n6)cc5)n4)nn3)n2)cc1 [Compound 2a]	ca. 1000 fold	0.29 ± 0.03 µM	0.025 ± 0.008 µM	–	–	–	–
N=C(NCCCCNc1nc(N)nc(N)n1)c1ccc(C(=N)NCCCCNc2nc(N)nc(N)n2)cc1 [Compound 1a]	–	189 ± 33 µM	16 ± 6 µM	8 µM	8 µM	~1000 fold	partially rescuing the mis-splicing
